Reference: ChEMBL document CHEMBL5727296, “Amino-triazolopyridine compounds and their use in treating cancer” (2019)

Molecular target: T1, Dual specificity protein kinase TTK (Homo sapiens, UniProt P33981)
T1 sequence (P33981 whole entry): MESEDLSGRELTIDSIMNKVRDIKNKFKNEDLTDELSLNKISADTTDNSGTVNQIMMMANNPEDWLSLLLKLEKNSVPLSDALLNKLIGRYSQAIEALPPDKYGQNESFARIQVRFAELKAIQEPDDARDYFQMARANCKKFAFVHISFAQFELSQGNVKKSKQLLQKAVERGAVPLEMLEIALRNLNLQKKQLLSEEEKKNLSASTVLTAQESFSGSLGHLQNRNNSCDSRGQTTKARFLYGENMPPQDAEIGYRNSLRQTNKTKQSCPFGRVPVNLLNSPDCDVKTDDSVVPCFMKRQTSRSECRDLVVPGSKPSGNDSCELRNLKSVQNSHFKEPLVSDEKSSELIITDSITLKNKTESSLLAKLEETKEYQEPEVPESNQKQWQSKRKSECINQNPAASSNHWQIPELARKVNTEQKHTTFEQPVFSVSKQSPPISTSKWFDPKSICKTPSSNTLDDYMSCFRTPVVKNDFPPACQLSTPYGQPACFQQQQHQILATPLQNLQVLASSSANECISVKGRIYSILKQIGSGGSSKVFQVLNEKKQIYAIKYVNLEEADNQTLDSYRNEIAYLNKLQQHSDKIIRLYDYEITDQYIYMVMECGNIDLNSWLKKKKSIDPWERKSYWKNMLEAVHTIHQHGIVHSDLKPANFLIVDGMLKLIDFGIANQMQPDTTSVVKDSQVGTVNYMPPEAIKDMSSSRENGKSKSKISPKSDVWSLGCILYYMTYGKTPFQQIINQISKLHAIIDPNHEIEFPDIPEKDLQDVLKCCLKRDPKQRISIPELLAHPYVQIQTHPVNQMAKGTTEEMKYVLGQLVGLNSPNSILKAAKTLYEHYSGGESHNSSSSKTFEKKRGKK
Assay: Enzyme Assay: The inhibitory activity of compounds against AURKA, AURKB, JAK1, JAK2 and JAK3 was determined in Z′-LYTE® assays run by ThermoFisher Scientific as part of their SelectScreen Biochemical Kinase Profiling Service. The Z′-LYTE biochemical assay format employs a fluorescence-based, coupled-enzyme format and is based on the differential sensitivity of phosphorylated and …
Description: Enzyme Assay: The inhibitory activity of compounds against AURKA, AURKB, JAK1, JAK2 and JAK3 was determined in Z′-LYTE® assays run by ThermoFisher Scientific as part of their SelectScreen Biochemical Kinase Profiling Service. The Z′-LYTE biochemical assay format employs a fluorescence-based, coupled-enzyme format and is based on the differential sensitivity of phosphorylated and non-phosphorylated peptides to proteolytic cleavage. The peptide substrate is labeled with two fluorophores one at each end that make up a FRET pair. In the primary reaction, the kinase transfers the gamma-phosphate of ATP to a single tyrosine, serine or threonine residue in a synthetic FRET-peptide. In the secondary reaction, a site-specific protease recognises and cleaves non-phosphorylated FRET-peptides. Phosphorylation of FRET-peptides suppresses cleavage by the Development Reagent. Cleavage disrupts FRET between the donor (i.e., coumarin) and acceptor (i.e., fluorescein) fluorophore on the FRET-peptide, whereas uncleaved, phosphorylated FRET-peptides maintain FRET. A ratiometric method, which calculates the ratio (the Emission Ratio) of donor emission to acceptor emission after excitation of the donor fluorophore at 400 nm, is used to quantitate reaction progress. Both cleaved and uncleaved FRET-peptides contribute to the fluorescence signals and therefore to the Emission Ratio. The extent of phosphorylation of the FRET-peptide can be calculated from the Emission Ratio.

SMILES: Cc1cc2ncnn2cc1Nc1ncc2c(n1)n([C@H]1CC[C@@](C)(O)CC1)c(=O)n2C
- IC50: 501 nM
